Data on 27 molecules can be found in PubChem BioAssay (NCI).

Test in all cases: DTP human tumour cell line panel, 48 h
The subject of test [1] is HS 578T breast.
The subject of test [2] is IGROV1 ovarian.
Test [3] relates to MDA-MB-231 breast.
The subject of test [4] is OVCAR-3 ovarian.
Test [5] deals with OVCAR-5 ovarian.
Test [6] relates to OVCAR-8 ovarian.
Test [7] deals with SF-295 CNS.
The test system of test [8] is SF-539 CNS.
In test [9] the test system is SNB-75 CNS.
The subject of test [10] is UO-31 renal.

Molecules are shown by their SMILES.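 These data come from cells grown in 96-well plates and exposed to compound for 48 hours at five concentrations. GI50 marks 50% less growth. TGI denotes the concentration required for complete inhibition of growth.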 Where a SMILES comes first, the peptide text is derived from it. The star is where a group is joined. Fmoc = O=C(OCC1c2ccccc2-c2ccccc21)*; Boc = CC(C)(C)OC(=O)*

One may read the TGI as the concentration at which net growth stops. Low values mean greater sensitivity of the cells, high ones lower sensitivity of the cells. Regarding `CCOC(=O)c1ccc(C(=O)/C(C(C)=O)=C2\CCCN2C)n1C`, the TGI in test [1], in test [2], in [3], in [4], in test [5] and in test [6] was greater than 100 µM throughout. In addition, the concentration for total growth inhibition (TGI) in test [7] is greater than 100 µM; in test [8] it was 22.8 µM; in test [9], 66.6 µM; in test [10], greater than 100 µM.

Regarding `CCCCCCCCCCCCCC[S+](C)C`, the TGI was 3.78 µM in test [1]; 2.33 µM in test [2]; 4.64 µM in test [3]; 4.03 µM in test [4]; greater than 10 µM in [5]; 3.58 µM in [6]. The TGI is greater than 10 µM in test [7], 2.79 µM in test [8], 3.51 µM in [9] and greater than 10 µM in [10].

With `CC(=O)N(O)[C@@H]1CC[C@H](n2cnc3c(N)ncnc32)C1`, the TGI in test [1], in test [2], in [3], in test [4], in [5] and in test [6] was greater than 100 µM throughout. The concentration for total growth inhibition (TGI) in test [7], in test [8], in test [9] and in test [10] was greater than 100 µM throughout.

Consider `O=C/C=C/c1ccco1`, for which the TGI in test [1], in test [2], in test [3], in test [4], in [5] and in test [6] was greater than 100 µM throughout. The TGI in test [7], in test [8], in test [9] and in test [10] was greater than 100 µM each time.

In the case of `CN(C)c1nncc2[nH]cnc12`, the concentration for total growth inhibition (TGI) in test [1], in [2], in test [3], in [4], in [5] and in [6] was greater than 100 µM in each case. The TGI in [7], in [8], in test [9] and in test [10] was greater than 100 µM throughout.

`O=C(CCCCCCC(=O)Nc1cccnc1)NO`: the TGI in test [1] is greater than 95.3 µM; in test [2], greater than 68.9 µM; in test [3], greater than 100 µM; in test [4] it was 18.7 µM; in test [5] it was greater than 32.1 µM; in test [6], greater than 57.5 µM. Also, the TGI in test [7], in test [8], in test [9] and in test [10] was greater than 100 µM in each case.

In the case of `COc1ccc(OC)c(CC2CCc3nc(N)nc(N)c3C2)c1` (centres undefined), the TGI in [1] is greater than 70.8 µM; in [2], 28.1 µM; in test [3], greater than 100 µM; in [4], greater than 100 µM; in test [5] it was greater than 100 µM; in test [6], greater than 100 µM. Moreover, the total growth inhibition concentration (TGI) is 27.7 µM in [7], 22.6 µM in [8], 27.2 µM in [9] and greater than 75.4 µM in test [10].

Take `CCOc1ccc(/C=N/[N+](C)(C)C)cc1OCC`: the total growth inhibition concentration (TGI) in test [1], in [2], in test [3], in test [4], in test [5] and in test [6] was greater than 10 µM in each case. The concentration for total growth inhibition (TGI) in [7], in test [8] and in test [9] was greater than 10 µM throughout.

As usually defined, the GI50 is the concentration giving 50% growth inhibition. With `O=C1/C(=C/c2ccc(Cl)cc2)N=C(c2ccccc2)N1CCc1cccs1`, the GI50 is 20.3 µM in test [1]; 36.7 µM in test [2]; 13.6 µM in [3]; 16.7 µM in [4]; 61.2 µM in [5]; 43.8 µM in [6]. Besides, the GI50 in test [7] is 17.7 µM; in test [8] it was 48.2 µM; in test [9], 50.9 µM. For the same molecule, the total growth inhibition concentration (TGI) was greater than 100 µM in [1]; greater than 100 µM in test [2]; 98.7 µM in test [3]; greater than 100 µM in [4]; greater than 100 µM in test [5]; greater than 100 µM in test [6]. In addition, the concentration for total growth inhibition (TGI) in test [7], in test [8] and in test [9] was greater than 100 µM throughout.

For `CC(C)(C)OC(=O)NCCCCC(NC(=O)OCC1c2ccccc2-c2ccccc21)C(=O)N1CCCC1C(=O)NCC(N)=O` (stereo not drawn) (Fmoc-Lys(Boc)-Pro-Gly-NH2; configuration not given here), the TGI in [1], in [2], in test [3], in test [4], in test [5] and in [6] was greater than 100 µM each time. Also, the TGI was greater than 100 µM in [7], greater than 100 µM in test [8], greater than 100 µM in test [9] and 29.1 µM in test [10].

Take `CCOC(=O)C(C(=S)Nc1ccccc1)c1nn2c(=O)cc(C)nc2s1` (centres undefined): the TGI in test [1] was greater than 100 µM; in test [2] it was greater than 100 µM; in [3] it was 70 µM; in test [4], 63.2 µM; in test [5], greater than 100 µM; in [6], 51 µM. Further, the TGI in test [7] is greater than 100 µM; in test [8] it was 86.6 µM; in test [9] it was 60 µM; in [10], 70 µM.

In the case of `CC(C)C1=CCC2C(=C1)CCC1C(C)(C(=O)O)CCCC21C` (centres undefined) (tested in a mixture with another compound), the TGI in [1], in [2], in [3], in test [4], in test [5] and in test [6] was greater than 100 µM throughout. Besides, the TGI in [7], in test [8], in test [9] and in test [10] was greater than 100 µM throughout.

As for `O=C1/C(=C/c2ccccc2O)N=C(c2ccccc2)N1c1nc2ccccc2s1`, the total growth inhibition concentration (TGI) is 58.4 µM in [1]; greater than 100 µM in [2]; 95.1 µM in [3]; 54.3 µM in test [4]; greater than 100 µM in [5]; 72.6 µM in test [6]. The TGI in test [7] is 87.1 µM; in test [8], 57 µM; in test [9] it was 98.2 µM; in test [10] it was greater than 100 µM.

With `Brc1ccc2c([C@H]3CN[C@@H](c4c[nH]c5cc(Br)ccc45)CN3)c[nH]c2c1`, the TGI worked out at 25.2 µM in test [1]; 8.2 µM in [2]; 6.65 µM in test [3]; 3.94 µM in test [4]; 10.5 µM in test [5]; 3.38 µM in test [6]. Also, the TGI is 19.3 µM in [7], 7.46 µM in [8], 17.8 µM in test [9] and 13.8 µM in [10].

For the molecule `Fc1ccc2nc3n(c2c1)C(c1c(Cl)cccc1Cl)SC3` (centres undefined), the TGI in [1], in [2], in test [3], in test [4], in test [5] and in test [6] was greater than 100 µM throughout. For the same molecule, the TGI in test [7], in test [8], in test [9] and in [10] was greater than 100 µM each time.

As for `Cc1noc2nnn(-c3ccc(Cl)cc3)c(=O)c12`, the TGI in [1] was greater than 60.3 µM; in [2] it was 19.2 µM; in [3], 25.7 µM; in test [4], 6.83 µM; in [5], 20 µM; in [6] it was 29.8 µM. Moreover, the TGI in [7] is 27.8 µM; in test [8], 1.73 µM; in test [9] it was 7.47 µM; in test [10] it was 8.63 µM.

With `COc1ccc2oc(OC)c(CC=C(C)C)c(=O)c2c1C`, the TGI in test [1], in test [2], in test [3], in [4], in [5] and in test [6] was greater than 100 µM throughout. Also, the TGI in test [7], in [8], in test [9] and in [10] was greater than 100 µM in each case.

As to `N=C(N)SCc1ccc(Cl)cc1Cl` (tested in a mixture with another compound), the TGI in [1] was 45.2 µM; in [2] it was 42.9 µM; in test [3], 25 µM; in test [4] it was 28.1 µM; in [5], 35.7 µM; in test [6], greater than 100 µM. The TGI in [7] is 31.3 µM; in test [8] it was 31.9 µM; in test [9], 30.9 µM; in [10], 23.1 µM.

`Nc1nc(Cl)cc(NCCC2(CO)CCC2)n1`: the total growth inhibition concentration (TGI) in test [1], in test [2], in test [3], in test [4], in test [5] and in [6] was greater than 100 µM in each case. The TGI in test [7], in test [8], in [9] and in test [10] was greater than 100 µM in each case.

Take `CCOC(=O)C(Cl)(NC(=O)c1c(F)c(F)c(F)c(F)c1F)C(F)(F)F` (centres undefined): the concentration for total growth inhibition (TGI) in test [1], in [2], in [3], in test [4], in [5] and in test [6] was greater than 100 µM in each case. The TGI in [7], in test [8], in [9] and in [10] was greater than 100 µM throughout.

`COc1ccc(/C=C2\N=C(c3ccccc3)N(N=C3NC(=O)CC(=O)N3)C2=O)cc1`: the TGI in test [1], in test [2], in test [3], in test [4], in [5] and in [6] was greater than 100 µM in each case. The TGI in [8], in [9] and in [10] was greater than 100 µM each time.

On to `Cn1c2ccccc2c2c(=O)[nH]c(=O)[nH]c21`, for which the TGI in test [1], in [2], in test [3], in test [4], in test [5] and in [6] was greater than 100 µM each time. In addition, the TGI in [7], in test [8], in test [9] and in [10] was greater than 100 µM in each case.

In the case of `CSc1c(C#N)c(N)nc2c(N=Nc3ccc(Cl)cc3)c(N)nn12`, the TGI in test [1] was 3.43 µM; in [2] it was 3.46 µM; in test [3] it was 4.85 µM; in test [4], 3.38 µM; in test [5] it was 39.6 µM; in [6] it was 4.15 µM. Besides, the concentration for total growth inhibition (TGI) in test [7] stood at 62.3 µM; in test [8], 12.3 µM; in [9], 15.3 µM; in [10], 4.42 µM.

For `COCOc1c(C(O[Si](C)(C)C(C)(C)C)c2cnc(Sc3ccccc3)n2C)ccc(OC)c1OC` (centres undefined), the TGI in test [1] is 6.17 µM; in test [2], 5.01 µM; in test [3], 3.19 µM; in test [4] it was 3.22 µM; in [5], greater than 100 µM; in test [6] it was 2.74 µM. Besides, the TGI in test [7] was 6.18 µM; in [8], 3.71 µM; in test [9] it was 5.77 µM; in test [10], 3.32 µM.

`Cc1cc(C)nc(SC(C)C(=O)N/N=C/c2ccc(OCc3ccccc3)cc2)n1` (centres undefined): the total growth inhibition concentration (TGI) in test [1] was greater than 100 µM; in test [2] it was greater than 100 µM; in test [3] it was 65 µM; in [4], greater than 100 µM; in test [5], greater than 100 µM; in test [6] it was greater than 100 µM. Further, the TGI in [7], in test [8], in test [9] and in test [10] was greater than 100 µM in each case.

Turning to `COC(=O)/C=C/c1ccc2c(c1)CC1(C2)Cc2cc3c(cc2C1=O)CCC3` (centres undefined), the total growth inhibition concentration (TGI) in [1] is 78.9 µM; in test [2], greater than 100 µM; in test [3], greater than 100 µM; in [4], 43.7 µM; in test [6], 68.8 µM; in test [7], greater than 100 µM. In addition, the TGI in [8] is greater than 100 µM; in test [9], 71.3 µM; in test [10], greater than 100 µM.

`O=C1CCCC/C1=C\c1ccc(Br)cc1`: the total growth inhibition concentration (TGI) in test [1] was 52.3 µM; in test [2], 38.3 µM; in test [3], 37.7 µM; in test [4] it was 44.3 µM; in test [6], greater than 100 µM; in test [7] it was 49.7 µM. Also, the TGI in test [8] was found to be 37.1 µM; in [9], 29.8 µM; in test [10] it was 29.6 µM.
